The values that follow come from patent US20250127169A1, “PLANTS HAVING INCREASED TOLERANCE TO HERBICIDES” (BASF Agricultural Solutions Seed US LLC, priority 2021, published 2025).

Assay [1] has as its system Soybean cv Jake WT (non-transgenic). The format is in vivo. To be noted: post, single plants. The method, then: Soybean cv Jake is transformed as previously described by Siminszky et al., Phytochem Rev. 5:445-458 (2006). After regeneration, transformants are transplanted to soil in small pots, placed in growth chambers (16 hr day/8 hr night; 25° C. day/23° C. night; 65% relative humidity; 130-150 microE m-2 s-1) and subsequently tested for the presence of the T-DNA via Taqman analysis. After a few weeks, healthy, transgenic positive, single copy events are transplanted to larger pots and allowed to grow in the growth chamber. An optimal shoot for cutting is about 3-4 inches tall, with at least two nodes present. Each cutting is taken from the original transformant (mother plant) and dipped into rooting hormone powder (indole-3-butyric acid, IBA). The cutting is then placed in oasis wedges inside a bio-dome. The mother plant is taken to maturity in the greenhouse and harvested for seed. Wild type cuttings are also taken simultaneously to serve as negative controls. The cuttings are kept in the bio-dome for 5-7 days and then transplanted to 3 inch pots and then acclimated in the growth chamber for two more days. Subsequently, the cuttings are transferred to the greenhouse, acclimated for approximately 4 days prior to spray. T0 or 2-week old T1 plants are sprayed with a treatment of the phenyluracils as disclosed SUPRA and optionally photosynthesis inhibitor diuron as negative control. Herbicide injury evaluations are taken at 2, 7, 14 and 21 days after treatment.
Evaluation performed 3 Days After Treatment (DAT) and 1 Week after Treatment (WAT) and shown as injury (0-9) relative to non-transgenic treated plants. Injury Scale: 0-9, 0=no injury, 9=maximum injury. Note: segregating lines.
The following gives a definition of the injury scores measured above: • Score Description of injury • 0 No Injury • 1 Minimal injury, only a few patches of leaf injury or chlorosis. • 2 Minimal injury with slightly stronger chlorosis. Overall growth points remain undamaged. • 3 Slightly stronger injury on secondary leaf tissue, but primary leaf and growth points are still undamaged. • 4 Overall plant morphology is slightly different, some chlorosis and necrosis in secondary growth points and leaf tissue. Stems are intact. Regrowth is highly probable within 1 week. • 5 Overall plant morphology is clearly different, some chlorosis and necrosis on a few leaves and growth points, but primary growth point is intact. Stem tissue is still green. Regrowth is highly probably within 1 week. • 6 Strong injury can be seen on the new leaflet growth. Plant has a high probability to survive only through regrowth at different growth points. Most of the leaves are chlorotic/necrotic but stem tissue is still green. May have regrowth but with noticeable injured appearance. • 7 Most of the active growth points are necrotic. There may be a single growth point that could survive and may be partially chlorotic or green and partially necrotic. Two leaves may still be chlorotic with some green; the rest of the plant including stem is necrotic. • 8 Plant will likely die, and all growth points are necrotic. One leaf may still be chlorotic with some green. The remainder of the plant is necrotic. • 9 Plant is dead.

The test system of assay [2] is Soybean CD215 WT (non-transgenic). The format is in vivo. To be noted: post, single plants.
Assay [3] concerns the target PPO AMATU WT (SEQ ID NO: 1) (Amaranthus tuberculatus, UniProt Q0NZW9). The assay is described as follows: PPO enzyme assay (recombinant). The format is biochemical. Conditions: 150 μM Protogen, molar concentration for 50% enzyme inhibition.

Molecules are shown by their SMILES. pIC50: −log10 of the molar value. Read-outs that look alike come from different tables or passages of the source.

Turning to `COC(=O)C(OC)Oc1ccccc1Oc1cc(-n2c(=O)cc(C(F)(F)F)n(C)c2=O)c(F)cc1Br` (stereo not drawn) [Phenyluracil No. 1], the “injury (0-9)” value in assay [1] (25 g/ha + 1% MSO, 1WAT) is 9 (Plant is dead.); in assay [1] (25 g/ha + 1% MSO, 3DAT) it was 9 (Plant is dead.); in assay [1] (50 g/ha + 1% MSO, 1WAT) it was 9 (Plant is dead.); in assay [1] (50 g/ha + 1% MSO, 3DAT) it was 9 (Plant is dead.); in assay [1] (100 g/ha + 1% MSO, 1WAT) it was 9 (Plant is dead.); in assay [1] (100 g/ha + 1% MSO, 3DAT), 9 (Plant is dead.). The “injury (0-9)” value in assay [2] (25 g/ha + 1% MSO, 1WAT) is listed as 9 (Plant is dead.); in assay [2] (25 g/ha + 1% MSO, 3DAT), 9 (Plant is dead.); in assay [2] (50 g/ha + 1% MSO, 1WAT), 9 (Plant is dead.); in assay [2] (50 g/ha + 1% MSO, 3DAT) it was 9 (Plant is dead.); in assay [2] (100 g/ha + 1% MSO, 1WAT), 9 (Plant is dead.); in assay [2] (100 g/ha + 1% MSO, 3DAT) it was 9 (Plant is dead.).

Consider `COC(=O)C(OC)Oc1ccccc1Oc1cc(-n2c(=O)cc(C(F)(F)F)n(C)c2=O)c(F)cc1Br` (stereo not drawn) [phenyluracil 1, methyl 2-[2-[2-bromo-4-fluoro-5-[3-methyl-2,6-dioxo-4-(trifluoromethyl)pyrimidin-1-yl]phenoxy]phenoxy]-2-methoxy-acetate], for which the pIC50 in assay [3] was 9.15.

As for `CCOC(=O)C(OC)Oc1ccccc1Oc1cc(-n2c(=O)cc(C(F)(F)F)n(C)c2=O)c(F)cc1Br` (stereo not drawn) [phenyluracil 2, ethyl 2-[2-[2-bromo-4-fluoro-5-[3-methyl-2,6-dioxo-4-(trifluoromethyl)pyrimidin-1-yl]phenoxy]phenoxy]-2-methoxy-acetate], the pIC50 in assay [3] was 9.49.

Turning to `COC(Oc1ccccc1Oc1cc(-n2c(=O)cc(C(F)(F)F)n(C)c2=O)c(F)cc1Br)C(=O)O` (stereo not drawn) [phenyluracil 3, 2-[2-[2-bromo-4-fluoro-5-[3-methyl-2,6-dioxo-4-(trifluoromethyl)pyrimidin-1-yl]phenoxy]phenoxy]-2-methoxy-acetic acid], in assay [3], the pIC50 was 9.74.
